Experimental findings from ChEMBL document CHEMBL4406902, “Structure-based analysis and biological characterization of imatinib derivatives reveal insights towards the inhibition of wild-type BCR-ABL and its mutants” (Bioorg Med Chem Lett, 2019) are described below.

The nature of test [1]: Inhibition of BCR/Abl P190 mutant (unknown origin) transfected in mouse Ba/F3 cells assessed as inhibition of cell proliferation measured after 72 hrs by CellTiter-Glo luminescent cell viability assay. Conditions: BaF3, 72 h. It counts as cell-based.
Test [2] can be described thus: Inhibition of BCR/Abl P230 mutant (unknown origin) transfected in mouse Ba/F3 cells assessed as inhibition of cell proliferation measured after 72 hrs by CellTiter-Glo luminescent cell viability assay. Conditions: BaF3, 72 h. It counts as cell-based.

For `Cc1ncc(NC(=O)c2ccc(CN3CCN(C)CC3)c(C(F)(F)F)c2)cc1Nc1nccc(-c2cccnc2)n1` [FLUMATINIB], the 50% inhibitory concentration (IC50) stood at 13.3 nM in test [1] and 10.3 nM in test [2].

Turning to `Cc1ccc(NC(=O)c2ccc(CN3CCN(C)CC3)cc2)cc1Nc1nccc(-c2cccnc2)n1` [IMATINIB], the IC50 in test [1] came out at 346 nM; in test [2], 222 nM.

In the case of `Cc1cn(-c2cc(NC(=O)c3ccc(C)c(Nc4nccc(-c5cccnc5)n4)c3)cc(C(F)(F)F)c2)cn1` [NILOTINIB], the figures for the IC50 in test [1] and in test [2] were 23.2 nM and 19 nM, respectively.
